We go through four molecules from ChEMBL document CHEMBL1909046, “DrugMatrix in vitro pharmacology data”.

The term IC50 denotes the concentration that inhibits the measured activity by half. For orientation: Ki means the equilibrium dissociation constant of an inhibitor or competing ligand from its target.

The target in assay [1] is Sigma non-opioid intracellular receptor 1 (Homo sapiens, UniProt Q99720). Nature of the assay: DRUGMATRIX: Sigma1 radioligand binding (ligand: [3H] Haloperidol). It counts as cell membranes, Jurkat, Membrane. Particulars: Not Active = under 50% inhibition at 10 µM.
Sequence of Sigma non-opioid intracellular receptor 1 (Q99720 whole entry): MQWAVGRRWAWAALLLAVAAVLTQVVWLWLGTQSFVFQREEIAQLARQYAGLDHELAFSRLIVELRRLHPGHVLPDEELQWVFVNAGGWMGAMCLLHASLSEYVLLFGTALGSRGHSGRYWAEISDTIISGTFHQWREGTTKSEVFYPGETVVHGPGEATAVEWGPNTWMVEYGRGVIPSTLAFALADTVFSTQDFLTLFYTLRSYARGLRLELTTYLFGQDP
Assay [2] can be described thus: DRUGMATRIX: Calcium Channel Type L, Phenylalkylamine radioligand binding (ligand: [3H] (-)-Desmethoxyverapamil (D-888)). It counts as cell membranes, Rattus norvegicus, Wistar, Brain, Membrane. As to conditions: Not Active = under 50% inhibition at 10 µM.
In assay [3] the target is T1, C-X-C chemokine receptor type 2 (Homo sapiens, UniProt P25025). Note: in other assays of this panel Not Active means under 50% inhibition at 10 µM.
T1 sequence (P25025 whole entry): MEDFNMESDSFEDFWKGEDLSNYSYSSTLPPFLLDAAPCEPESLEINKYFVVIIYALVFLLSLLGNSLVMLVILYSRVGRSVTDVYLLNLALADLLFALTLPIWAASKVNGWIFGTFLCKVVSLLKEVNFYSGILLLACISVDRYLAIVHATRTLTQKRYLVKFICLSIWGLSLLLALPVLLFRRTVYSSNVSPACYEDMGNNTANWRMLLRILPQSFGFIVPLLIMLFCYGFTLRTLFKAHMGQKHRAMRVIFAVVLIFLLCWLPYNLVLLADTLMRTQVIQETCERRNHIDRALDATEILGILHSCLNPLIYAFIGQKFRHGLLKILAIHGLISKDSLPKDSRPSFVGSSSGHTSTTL
It counts as cell membranes, CHO-K1, Membrane. As to conditions: cho-k1.

The nature of assay [4]: DRUGMATRIX: Nicotinic Acetylcholine radioligand binding (ligand: [125I] Epibatidine). The assay is classed as cell membranes, Membrane. As to conditions: imr-32; Not Active = under 50% inhibition at 10 µM.
Assay [5] in a line: DRUGMATRIX: Phorbol Ester radioligand binding (ligand: [3H] PDBu). It counts as cell membranes, Mus musculus, ICR, Brain, Membrane. Particulars: Not Active = under 50% inhibition at 10 µM.
Assay [6] has as its target Tyrosine-protein kinase Fyn (Homo sapiens, UniProt P06241). Briefly: biochemical. It counts as cell-based, Insect cells. As to conditions: insect cells.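 Note: enzymatic inhibition of Fyn kinase activity measured with Poly(Glu:Tyr) as the phosphorylation substrate; in other assays of this panel Not Active means under 50% inhibition at 10 µM.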

Sequence of Tyrosine-protein kinase Fyn (P06241 whole entry): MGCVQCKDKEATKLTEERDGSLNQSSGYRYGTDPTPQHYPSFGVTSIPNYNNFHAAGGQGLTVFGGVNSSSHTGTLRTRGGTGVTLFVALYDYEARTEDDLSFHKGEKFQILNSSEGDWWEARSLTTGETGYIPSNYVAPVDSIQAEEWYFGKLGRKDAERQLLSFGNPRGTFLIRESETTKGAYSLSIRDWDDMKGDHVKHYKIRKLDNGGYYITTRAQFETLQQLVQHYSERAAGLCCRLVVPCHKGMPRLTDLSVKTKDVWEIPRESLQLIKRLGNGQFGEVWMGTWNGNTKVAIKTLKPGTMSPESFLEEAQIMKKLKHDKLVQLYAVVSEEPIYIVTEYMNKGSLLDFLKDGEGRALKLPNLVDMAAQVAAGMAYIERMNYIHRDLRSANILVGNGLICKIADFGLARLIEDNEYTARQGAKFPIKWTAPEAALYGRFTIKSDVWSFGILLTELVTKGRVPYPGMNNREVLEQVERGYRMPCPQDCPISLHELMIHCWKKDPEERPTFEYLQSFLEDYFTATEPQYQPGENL

On to `NCC(CC(=O)O)c1ccc(Cl)cc1` (configuration not stated) [BACLOFEN], for which the IC50 entry in assay [1] (jurkat), in assay [2], in assay [3], in assay [4], in assay [5] and in assay [6] was “Not Active” throughout. Also, the Ki result in assay [2], in assay [4] and in assay [5] was “Not Active” in each case.
Turning to `CO[C@H]1O[C@@H]2O[C@@]3(C)CC[C@H]4[C@H](C)CC[C@@H]([C@H]1C)[C@@]24OO3`, the IC50 result in assay [1] (jurkat), in assay [2], in assay [3], in assay [4], in assay [5] and in assay [6] was “Not Active” throughout. For the same molecule, the Ki result in assay [2], in assay [4] and in assay [5] was “Not Active” each time.
As for `CC(CN1c2ccccc2Sc2ccccc21)N(C)C` (configuration not stated) [PROMETHAZINE], the IC50 in assay [1] (read-out: IC50) was 287 nM; in assay [2] (read-out: IC50), 866 nM; in assay [3] it was “Not Active”; in assay [4], “Not Active”; in assay [5] it was “Not Active”; in assay [6], “Not Active”. Further, the inhibition constant Ki was 120 nM in assay [1] (read-out: Ki), 842 nM in assay [2] (read-out: Ki), “Not Active” in assay [4] and “Not Active” in assay [5].
With `O=C(O)CNCP(=O)(O)O` [GLYPHOSATE], the IC50 result in assay [1] (jurkat), in assay [2], in assay [3], in assay [4], in assay [5] and in assay [6] was “Not Active” throughout. Further, the Ki entry in assay [2], in assay [4] and in assay [5] was “Not Active” throughout.
